Results reported in publication PMC10075506, “Synthesis and biological evaluation of flavonoid-based IP6K2 inhibitors” (Journal of Enzyme Inhibition and Medicinal Chemistry, 2023).
Where two headings read alike, the source gives them in different places.

Molecular target: T1, recombinant human IP6K2 (Homo sapiens, UniProt Q9UHH9)
T1 construct: made in house; host or cells: Sf9 insect cells (baculovirus, pFASTBAC1)
T1 sequence (Q9UHH9 1-426): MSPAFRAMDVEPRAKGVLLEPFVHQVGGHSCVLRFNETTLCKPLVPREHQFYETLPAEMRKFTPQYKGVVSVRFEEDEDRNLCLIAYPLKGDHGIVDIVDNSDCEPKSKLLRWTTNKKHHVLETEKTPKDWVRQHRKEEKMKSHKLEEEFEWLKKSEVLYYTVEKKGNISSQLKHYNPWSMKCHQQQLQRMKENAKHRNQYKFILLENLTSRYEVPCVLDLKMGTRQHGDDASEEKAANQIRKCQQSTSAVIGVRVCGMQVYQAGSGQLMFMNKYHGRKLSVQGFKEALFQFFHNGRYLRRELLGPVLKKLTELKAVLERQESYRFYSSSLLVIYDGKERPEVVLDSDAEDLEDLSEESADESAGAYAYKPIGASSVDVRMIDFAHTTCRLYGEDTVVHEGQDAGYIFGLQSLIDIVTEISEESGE
Assay: ADP-Glo kinase assay, IP6K2
Type: biochemical
Conditions: for IP6K2-inhibitory activity in screening: at concentrations of 10 and 50 µM, result in words; for IC50: IP6K2 80 nM, IP6 10 μM, ATP 10 μM, read-out: IP6K2 IC50; for inhibitory activity against IP6K2 (in words): IC50 experiment up to 100 µM
Experimental: Inhibition activity of the synthesised compounds against IP6K2 was assessed using ADP-Glo™ Kinase Assay (Promega). Kinase reaction mixtures were first shaking-incubated with individual drugs (diluted in DMSO) for pre-incubation at RT for 15 min, and then ATP was added (final 10 µM) to initiate the reaction. 20 ng of recombinant human IP6K2 protein was used per 15 µL of IP6K2 reaction mixture (50 mM Tris-HCl, pH 6.8, 10 mM MgCl2, 2.5 mM DTT, 0.02% Triton X-100, 10 µM IP6). […] Each detection set was prepared on 96-well (25 µL kinase reaction) as duplicates. Resulting enzyme activity was calculated as following; Activity (%) = ([ADPexperimental]/[ADPDMSO])×100. For IC50 estimation of compounds, kinase assay was prepared on 384-well plates (20 ng of recombinant human IP6K2 protein was used per 5 µL kinase reaction mixture) as duplicates. The final concentrations for IP6K2, IP6, and ATP were 80 nM, 10 μM, and 10 μM, respectively. […] IP6K1 and IP6K3 assays were performed by Liao et al.’s conditions.[25] The final concentrations for IP6K1, IP6, and ATP were 60 nM, 100 μM, and 1 mM, respectively. […] All statistical analyses including IC50 estimation was performed using Prism 7 or Prism 9 (Graphpad Software).
Full-length human IP6K1, IP6K2, or IP6K3 cDNA was subcloned into pFASTBAC1 plasmid (Gibco) with an N-terminal FLAG epitope sequence, and baculovirus was generated according to the manufacturer’s instructions. Sf9 insect cells were infected with baculovirus and incubated for 72 h. The cells were resuspended in lysis buffer [20 mM Tris–HCl (pH 7.9), 500 mM NaCl, 4 mM MgCl2, 0.4 mM EDTA, 2 mM DTT, 20% glycerol, 1 mM PMSF, and protease inhibitor cocktail (Roche)] and then disrupted with a Dounce homogeniser (pestle A, 3 series of 10 strokes with 10 min interval).

[1] = Table 2, duplicates, 0.017 to 100 µM, mean ± SD

O=c1cc(-c2ccccc2)oc2cc(O)c(O)cc12 [Compound 2a]
IP6K2-inhibitory activity in screening: inhibit IP6K2 more strongly than the corresponding compounds

O=c1cc(-c2ccc(O)cc2)oc2cc(O)c(O)cc12 [Compound 2c]
IP6K2-inhibitory activity in screening: inhibit IP6K2 more strongly than the corresponding compounds

O=c1cc(-c2cccnc2)oc2cc(O)c(O)cc12 [Compound 2e]
IP6K2-inhibitory activity in screening: inhibit IP6K2 more strongly than the corresponding compounds

O=C(O)c1ccc(-c2cc(=O)c3cc(O)c(O)cc3o2)cc1 [Compound 16a, 4–(6,7-Dihydroxy-4-oxo-4H-chromen-2-yl)benzoic acid]
IC50 (Table 1): 9.07 µM

O=C(O)c1cccc(-c2cc(=O)c3c(O)cc(O)cc3o2)c1 [Compound 16d, 3–(5,7-Dihydroxy-4-oxo-4H-chromen-2-yl)benzoic acid]
IC50 (Table 1): 2.89 µM

O=c1c(O)c(-c2ccc(O)c(O)c2)oc2cc(O)c(O)cc12 [Compound 20a, 2–(3,4-Dihydroxyphenyl)-3,6,7-trihydroxy-4H-chromen-4-one]
IC50 [1]: 1.77 ± 0.15 µM

O=c1c(O)c(-c2ccccc2)oc2cc(O)c(O)cc12 [Compound 20b, 3,6,7-Trihydroxy-2-phenyl-4H-chromen-4-one]
IC50 [1]: 14.5 ± 0.9 µM

Cc1ccc(-c2oc3cc(O)c(O)cc3c(=O)c2O)cc1 [Compound 20c, 3,6,7-Trihydroxy-2-(p-tolyl)-4H-chromen-4-one]
IC50 [1]: > 100 µM

Cc1cccc(-c2oc3cc(O)c(O)cc3c(=O)c2O)c1 [Compound 20d, 3,6,7-Trihydroxy-2-(m-tolyl)-4H-chromen-4-one]
IC50 [1]: 38.8 ± 3.8 µM

Cc1ccc(-c2oc3cc(O)c(O)cc3c(=O)c2O)cc1C [Compound 20e, 2–(3,4-Dimethylphenyl)-3,6,7-trihydroxy-4H-chromen-4-one]
inhibitory activity against IP6K2 (in words): completely lost their inhibitory activity against IP6K2
IC50 [1]: > 100 µM

O=c1c(O)c(-c2ccc(F)cc2)oc2cc(O)c(O)cc12 [Compound 20f, 2–(4-Fluorophenyl)-3,6,7-trihydroxy-4H-chromen-4-one]
IC50 [1]: 61.9 ± 3.8 µM

O=c1c(O)c(-c2cccc(F)c2)oc2cc(O)c(O)cc12 [Compound 20g, 2–(3-Fluorophenyl)-3,6,7-trihydroxy-4H-chromen-4-one]
IC50 [1]: 38.7 ± 2.9 µM

O=c1c(O)c(-c2ccc(F)c(F)c2)oc2cc(O)c(O)cc12 [Compound 20h, 2–(3,4-Difluorophenyl)-3,6,7-trihydroxy-4H-chromen-4-one]
inhibitory activity against IP6K2 (in words): completely lost their inhibitory activity against IP6K2
IC50 [1]: > 100 µM

O=c1c(O)c(-c2ccc(C(F)(F)F)cc2)oc2cc(O)c(O)cc12 [Compound 20i, 3,6,7-Trihydroxy-2–(4-(trifluoromethyl)phenyl)-4H-chromen-4-one]
IC50 [1]: > 100 µM

O=c1c(O)c(-c2cccc(C(F)(F)F)c2)oc2cc(O)c(O)cc12 [Compound 20j, 3,6,7-Trihydroxy-2–(3-(trifluoromethyl)phenyl)-4H-chromen-4-one]
IC50 [1]: > 100 µM

O=c1c(O)c(-c2ccc(Cl)cc2)oc2cc(O)c(O)cc12 [Compound 20k, 2–(4-Chlorophenyl)-3,6,7-trihydroxy-4H-chromen-4-one]
IC50 [1]: 81.5 ± 3.3 µM

O=c1c(O)c(-c2cccc(Cl)c2)oc2cc(O)c(O)cc12 [Compound 20l, 2–(3-Chlorophenyl)-3,6,7-trihydroxy-4H-chromen-4-one]
IC50 [1]: 73.2 ± 3.2 µM

O=c1c(O)c(-c2ccc(-c3ccccc3)cc2)oc2cc(O)c(O)cc12 [Compound 20m, 2-([1,1'-Biphenyl]-4-yl)-3,6,7-trihydroxy-4H-chromen-4-one]
IC50 [1]: > 100 µM

O=c1c(O)c(-c2ccc(Oc3ccccc3)cc2)oc2cc(O)c(O)cc12 [Compound 20n, 3,6,7-Trihydroxy-2–(4-phenoxyphenyl)-4H-chromen-4-one]
IC50 [1]: > 100 µM

O=c1c(O)c(-c2cccc(Oc3ccccc3)c2)oc2cc(O)c(O)cc12 [Compound 20o, 3,6,7-Trihydroxy-2–(3-phenoxyphenyl)-4H-chromen-4-one]
IC50 [1]: 73.3 ± 12.7 µM

O=c1c(O)c(-c2ccc(O)cc2)oc2cc(O)c(O)cc12 [Compound 20p, 3,6,7-Trihydroxy-2–(4-hydroxyphenyl)-4H-chromen-4-one]
IC50 [1]: 22.6 ± 0.3 µM
